Type in all cases: cell-based
One experiment has as its system BT474 cells. Description: Cell viability assay (CellTiter-Glo), BT474. The conditions noted are these: Homo sapiens, BT-474; PBD compounds (Table I); HER2 expressing cells; 72 h. How it is done:
(§1) Cell Viability Assay for Antibody-Polymer-Drug Conjugates.
(§2) PBD compounds and conjugates thereof were evaluated for their antiproliferation properties in tumor cell lines in vitro using CellTiter-Glo® (Promega Corp). Cells were plated in black walled 96-well plate and allowed to adhere overnight at 37° C. in a humidified atmosphere of 5% CO2. BT474, SKBR3, NCI-N87 cells (HER2 expressing cells), JIMT1 cells (HER2 medium expression level cells) and MCF7 cells (HER2 low expressing levels cells) and were plated at a density of 5,000 cells per well. The next day the medium was replaced with 50 μL fresh medium and 50 μL of 2× stocks of PBD compounds or antibody-PBD conjugate were added to appropriate wells, mixed and incubated for 72 h. CellTiter-Glo® reagent was added to the wells at room temperature and the luminescent signal was measured after 10 min using a SpectraMax M5 plate reader (Molecular Devices). Dose response curves were generated using SoftMax Pro software. IC50 values were determined from four-parameter curve fitting.

The subject of another experiment is SKBR3 cells. Kind of experiment: Cell viability assay (CellTiter-Glo), SKBR3. The settings on record: Homo sapiens, SK-BR-3; PBD compounds (Table I); HER2 expressing cells; 72 h. How it is done: as §1, §2
Background: Cellular ATP, detected with luciferase, serves as a proxy for viable cell number.

The next experiment has as its system NCI-N87 cells. Kind of experiment: Cell viability assay (CellTiter-Glo), NCI-N87. The conditions noted are these: Homo sapiens, PBD compounds (Table I), HER2 expressing cells, 72 h. How it is done: as §1, §2
The next experiment relates to JIMT1 cells. Description: Cell viability assay (CellTiter-Glo), JIMT1. The conditions noted are these: Homo sapiens, JIMT-1; PBD compounds (Table I); HER2 medium expression level cells; 72 h. How it is done:
as §1, §2

The next experiment relates to MCF7 cells. Kind of experiment: Cell viability assay (CellTiter-Glo), MCF7. The settings on record: Homo sapiens, PBD compounds (Table I), HER2 low expressing levels cells, 72 h. How it is done: as §1, §2

SMILES strings stand for the structures.

In the case of `C=C1CC2C=Nc3cc(OCCCC(=O)Nc4cn(C)c(C(=O)Nc5ccc(-c6nc7ccc(C(=O)OC)cc7[nH]6)cc5)n4)c(OC)cc3C(=O)N2C1` (stereo not shown) [Compound 33, (Z)-methyl 2-(4-(4-(4-(7-methoxy-2-methylene-5-oxo-2,3,5,11a-tetrahydro-1H-benzo[e]pyrrolo[1,2-a][1,4]diazepin-8-yloxy)butanamido)-1-methyl-1H-imidazole-2-carboxamido)phenyl)-1H-benzo[d]imidazole-6-carboxylate], the half-inhibitory concentration (IC50) – broadly, the concentration at which inhibition is half-maximal – was 3.1 nM in the experiment on BT474 cells; 0.3 nM with SKBR3 cells; 0.9 nM in the experiment on NCI-N87 cells; 0.3 nM in the experiment on JIMT1 cells; 3.4 nM in the experiment on MCF7 cells.
Take `C=C1C[C@H]2C=Nc3cc(OCCCC(=O)Nc4cn(C)c(C(=O)Nc5ccc(-c6nc7ccc(N)cc7[nH]6)cc5)n4)c(OC)cc3C(=O)N2C1` [Compound 9, (S,Z)—N-(4-(5-amino-1H-benzo[d]imidazol-2-yl)phenyl)-4-(4-(7-methoxy-2-methylene-5-oxo-2,3,5,11a-tetrahydro-1H-benzo[e]pyrrolo[1,2-a][1,4]diazepin-8-yloxy)butanamido)-1-methyl-1H-imidazole-2-carboxamide]: the IC50 worked out at 4 nM in the experiment on BT474 cells; 0.3 nM in the experiment on SKBR3 cells; 0.9 nM with NCI-N87 cells; 0.7 nM in the experiment on JIMT1 cells; 1.6 nM with MCF7 cells.
As for `COc1cc2c(cc1OCCCC(=O)Nc1cn(C)c(C(=O)Nc3ccc(-c4cc(C(=O)NCCCO)n(C)c4)cc3)n1)N=C[C@@H]1CCCN1C2=O` [Compound 40, (S,Z)—N-(4-(5-(3-hydroxypropylcarbamoyl)-1-methyl-1H-pyrrol-3-yl)phenyl)-4-(4-(7-methoxy-5-oxo-2,3,5,11a-tetrahydro-1H-benzo[e]pyrrolo[1,2-a][1,4]diazepin-8-yloxy)butanamido)-1-methyl-1H-imidazole-2-carboxamide], the IC50 with BT474 cells amounted to 3 nM; in the experiment with SKBR3 cells, 0.8 nM; in the experiment with NCI-N87 cells, 1.7 nM; in the experiment on JIMT1 cells, 1.3 nM; in the experiment on MCF7 cells, 5.5 nM.
The matching figures for `C=C1C[C@H]2C=Nc3cc(OCCCC(=O)Nc4cc(-c5nc6ccc(N)cc6[nH]5)n(C)c4)c(OC)cc3C(=O)N2C1` [Compound 27, (S,Z)—N-(5-(6-amino-1H-benzo[d]imidazol-2-yl)-1-methyl-1H-pyrrol-3-yl)-4-(7-methoxy-2-methylene-5-oxo-2,3,5,11a-tetrahydro-1H-benzo[e]pyrrolo[1,2-a][1,4]diazepin-8-yloxy)butanamide]: 27.3 nM, 6.1 nM, 13 nM, 9 nM and 26 nM.
Consider `COc1cc2c(cc1OCCCC(=O)Nc1cc(C(=O)Nc3ccc(-c4cc(C(=O)NCCCO)n(C)c4)cc3)n(C)c1)N=C[C@@H]1CCCN1C2=O` [Compound 38, (S,Z)—N-(3-hydroxypropyl)-4-(4-(4-(4-(7-methoxy-5-oxo-2,3,5,11a-tetrahydro-1H-benzo[e]pyrrolo[1,2-a][1,4]diazepin-8-yloxy)butanamido)-1-methyl-1H-pyrrole-2-carboxamido)phenyl)-1-methyl-1H-pyrrole-2-carboxamide], for which the concentration for half-maximal inhibition (IC50) with BT474 cells is 7 nM; with SKBR3 cells it was 2 nM; in the experiment with NCI-N87 cells, 4 nM; with JIMT1 cells, 3 nM; in the experiment with MCF7 cells it was 8 nM.
